From US9550803B2, “Method to improve antiviral activity of nucleotide analogue drugs” (priority 2011, dated 2017)
Read-outs that look alike come from different tables or passages of the source.

Experiments:
[1] = tested on: human cytomegalovirus (HCMV); test: microbe, parasite or virus in culture; type: cell-based; settings: read-out: Antiviral activity, IC50 HCMV
vaccinia virus = test: microbe, parasite or virus in culture; type: cell-based; settings: read-out: Antiviral activity, IC50 Vaccinia
cowpox virus = test: microbe, parasite or virus in culture; type: cell-based; settings: read-out: Antiviral activity, IC50 Cowpox
in vitro = settings: human
[2] = Human betaherpesvirus 5, HFF, 240 h
[3] = Orthopoxvirus vaccinia, HFF, 72 h

SMILES	IC50 [1] [nM]	IC50 (vaccinia virus) [µM]	IC50 (cowpox virus) [µM]	CC50 (KB cells) [µM]	IC50 [1, 2] [nM]	CC50 (in vitro) [µM]	IC50 (vaccinia virus; [3]) [µM]	IC50 (cowpox virus; Cowpox virus, HFF, 72 h) [µM]
C[C@H](Cn1cnc2c(N)nc(N)nc21)OCP(=O)(O)O [(R)-PMPDAP, reference compound]	> 100000	> 100	> 100	> 100	–	–	–	–
Nc1ncnc2c1ncn2C[C@H]1COP(=O)(O)CO1 [(S)-cHPMPA, reference compound]	1500	1	2.5	> 100	–	–	–	–
CCCCCCCCNC(=O)[C@@H](N)Cc1ccc(OP(=O)(O)CO[C@H](CO)Cn2cnc3c(N)ncnc32)cc1 [Compound 9a, O-[([[(2S)-1-(6-Amino-9H-purin-9-yl)-3-hydroxypropan-2-yl]oxy]methyl)(hydroxy)-phosphoryl]-N-octyl-(L)-tyrosinamide]	–	–	–	–	< 100	–	–	–
CCCCCCCCCCCCCCCCCCNC(=O)[C@@H](N)Cc1ccc(OP2(=O)CO[C@@H](Cn3cnc4c(N)ncnc43)CO2)cc1 (stereo partly drawn) [Compound 8e, O-[(5S)-5-[(6-Amino-9H-purin-9-yl)methyl]-2-oxido-1,4,2-dioxaphosphinan-2-yl]-N-octadecyl-(L)-tyrosinamide]	–	–	–	–	< 0.001	10	–	–
CCCCCCCCCCCCCCCCNC(=O)[C@@H](N)Cc1ccc(OP(=O)(O)CO[C@H](CO)Cn2ccc(N)nc2=O)cc1 [Compound 9f, O-[([[(2S)-1-(4-amino-2-oxopyrimidin-(2H)-yl)-3-hydroxypropan-2-yl]oxy]methyl)-(hydroxy)phosphoryl]-N-hexadecyl-(L)-tyrosinamide]	< 0.001	–	–	90	–	–	–	–
CCCCCCCCCCCCNC(=O)[C@@H](N)Cc1ccc(OP(=O)(O)CO[C@H](CO)Cn2cnc3c(N)ncnc32)cc1 [Compound 9b, O-[([[(2S)-1-(6-Amino-9H-purin-9-yl)-3-hydroxypropan-2-yl]oxy]methyl)(hydroxy)-phosphoryl]-N-dodecyl-(L)-tyrosinamide]	–	–	–	–	< 0.001	15	–	–
CCCCCCCCCCCCCCCCNC(=O)[C@@H](N)Cc1ccc(OP2(=O)CO[C@@H](Cn3ccc(N)nc3=O)CO2)cc1 (stereo partly drawn) [Compound 8f, O-[(5S)-5-[(4-amino-2-oxopyrimidin-1(2H)-yl)methyl]-2-oxido-1,4,2-dioxaphosphinan-2-yl]-N-hexadecyl-(L)-tyrosinamide]	–	–	–	–	< 0.001	15	–	–
CCCCCCCCCCCCCCNC(=O)[C@@H](N)Cc1ccc(OP(=O)(O)CO[C@H](CO)Cn2cnc3c(N)ncnc32)cc1 [Compound 9c, O-[([[(2S)-1-(6-Amino-9H-purin-9-yl)-3-hydroxypropan-2-yl]oxy]methyl)(hydroxy)-phosphoryl]-N-tetradecyl-(L)-tyrosinamide]	–	–	–	–	< 0.001	20	–	–
CCCCCCCCCCCCCCCCNC(=O)[C@@H](N)Cc1ccc(OP(=O)(O)CO[C@H](CO)Cn2cnc3c(N)ncnc32)cc1 [Compound 9d, O-[([[(2S)-1-(6-Amino-9H-purin-9-yl)-3-hydroxypropan-2-yl]oxy]methyl)(hydroxy)-phosphoryl]-N-hexadecyl-(L)-tyrosinamide]	–	–	–	–	< 0.001	15	0.003	< 0.1
CCCCCCCCCCCCCCCCNC(=O)[C@@H](N)Cc1ccc(OP2(=O)CO[C@@H](Cn3cnc4c(N)ncnc43)CO2)cc1 (stereo partly drawn) [Compound 8d, O-[(5S)-5-[(6-Amino-9H-purin-9-yl)methyl]-2-oxido-1,4,2-dioxaphosphinan-2-yl]-N-hexadecyl-(L)-tyrosinamide]	–	–	–	–	< 0.001	11	0.006	< 0.1
CC(=NNC(N)=S)c1ccccn1 [Compound 3L, 2-Acetylpyridine thiosemicarbazone, reference compound]	–	–	–	–	–	2	–	–
CCCCCCCCCCCCCCNC(=O)[C@@H](N)Cc1ccc(OP2(=O)CO[C@@H](Cn3cnc4c(N)ncnc43)CO2)cc1 (stereo partly drawn) [Compound 8c, O-[(5S)-5-[(6-Amino-9H-purin-9-yl)methyl]-2-oxido-1,4,2-dioxaphosphinan-2-yl]-N-tetradecyl-(L)-tyrosinamide]	–	–	–	–	< 0.001	15	–	–
Nc1nc(O)c2ncn(COC(CO)CO)c2n1 [DHPG, Ganciclovir, reference compound]	–	–	–	–	3000	–	–	–
Nc1ccn(C[C@@H](CO)OCP(=O)(O)O)c(=O)n1 [(S)-HPMPC, cidofovir, reference compound]	–	–	–	–	300	> 100	10	25
CCCCCCCCCCCCCCCCNC(=O)[C@@H](N)Cc1ccc(OP(=O)(O)COCCn2cnc3c(N)ncnc32)cc1 [Compound 14b, O-[{[2-(6-Amino-9H-purin-9-yl)ethoxy]methyl}(hydroxy)phosphoryl]-N-hexadecyl-L-tyrosinamide]	–	–	–	–	2500	15	4	20
CCCCCCCCNC(=O)[C@@H](N)Cc1ccc(OP2(=O)CO[C@@H](Cn3cnc4c(N)ncnc43)CO2)cc1 (stereo partly drawn) [Compound 8a, O-[(5S)-5-[(6-Amino-9H-purin-9-yl)methyl]-2-oxido-1,4,2-dioxaphosphinan-2-yl]-N-octyl-(L)-tyrosinamide]	–	–	–	–	300	100	1.5	3
CCCCCCCCNC(=O)[C@@H](N)Cc1ccc(OP(=O)(O)COCCn2cnc3c(N)ncnc32)cc1 [Compound 14a, O-[{[2-(6-Amino-9H-purin-9-yl)ethoxy]methyl}(hydroxy)phosphoryl]-N-octyl-L-tyrosinamide]	–	–	–	–	35000	100	50	> 100
Nc1ncnc2c1ncn2CCOCP(=O)(O)O [PMEA, reference compound]	25000	> 100	> 100	> 100	–	–	–	–
CCCCCCCCNC(=O)[C@@H](N)Cc1ccc(OP(=O)(O)CO[C@H](C)Cn2cnc3c(N)nc(N)nc32)cc1 [Compound 15a, O-[({[(2R)-1-(2,6-diamino-9H-purin-9-yl)propan-2-yl]oxy}methyl)(hydroxy)phosphoryl]-N-octyl-L-tyrosinamide]	–	–	–	–	> 100000	> 100	> 100	> 100
Nc1ncnc2c1ncn2C[C@@H](CO)OCP(=O)(O)O [(S)-HPMPA, (S)-9-(3hydroxy-2-phosphonyl-methoxypropyl)adenine, reference compound]	6000	2.5	20	> 100	–	–	–	–
CCCCCCCCCCCCNC(=O)[C@@H](N)Cc1ccc(OP2(=O)CO[C@@H](Cn3cnc4c(N)ncnc43)CO2)cc1 (stereo partly drawn) [Compound 8b, O-[(5S)-5-[(6-Amino-9H-purin-9-yl)methyl]-2-oxido-1,4,2-dioxaphosphinan-2-yl]-N-dodecyl-(L)-tyrosinamide]	–	–	–	–	< 0.001	15	–	–
CCCCCCCCCCCCCCCCCCNC(=O)[C@@H](N)Cc1ccc(OP(=O)(O)CO[C@H](CO)Cn2cnc3c(N)ncnc32)cc1 [Compound 9e, O-[([[(2S)-1-(6-Amino-9H-purin-9-yl)-3-hydroxypropan-2-yl]oxy]methyl)-(hydroxy)-phosphoryl]-N-octadecyl-(L)-tyrosinamide]	–	–	–	–	< 0.001	10	–	–
